# ChEMBL document CHEMBL1142850, “Hepatitis C virus NS3-4A serine protease inhibitors: use of a P2-P1 cyclopropyl alanine combination for improved potency” (Bioorg Med Chem Lett, 2005)
# Numbered stars: 1 amine (or outer) side, 2 acyl side, 3 side chain; on linkers, the order of the positions; unused ones are H or OH. Square brackets hold non-standard residues; d marks the D form. Peptide text beside a SMILES is read from it. * marks the point of attachment. Isobutyloxycarbonyl = CC(C)COC(=O)*; Ala(cPr) = N[C@@H](CC1CC1)C(=O)O; X1 = CCCC(N[*:1])C(=O)C(=O)[*:2]; Ahp(2) = CCCCC[C@H](N)C(=O)O; Cba = N[C@@H](CC1CCC1)C(=O)O; Chg = N[C@H](C(=O)O)C1CCCCC1; Phg = N[C@H](C(=O)O)c1ccccc1; hLeu = CC(C)CC[C@H](N)C(=O)O
# Molecular target: NS3 (Hepatitis C virus, UniProt A3EZJ3)
# Sequence (A3EZJ3 whole entry): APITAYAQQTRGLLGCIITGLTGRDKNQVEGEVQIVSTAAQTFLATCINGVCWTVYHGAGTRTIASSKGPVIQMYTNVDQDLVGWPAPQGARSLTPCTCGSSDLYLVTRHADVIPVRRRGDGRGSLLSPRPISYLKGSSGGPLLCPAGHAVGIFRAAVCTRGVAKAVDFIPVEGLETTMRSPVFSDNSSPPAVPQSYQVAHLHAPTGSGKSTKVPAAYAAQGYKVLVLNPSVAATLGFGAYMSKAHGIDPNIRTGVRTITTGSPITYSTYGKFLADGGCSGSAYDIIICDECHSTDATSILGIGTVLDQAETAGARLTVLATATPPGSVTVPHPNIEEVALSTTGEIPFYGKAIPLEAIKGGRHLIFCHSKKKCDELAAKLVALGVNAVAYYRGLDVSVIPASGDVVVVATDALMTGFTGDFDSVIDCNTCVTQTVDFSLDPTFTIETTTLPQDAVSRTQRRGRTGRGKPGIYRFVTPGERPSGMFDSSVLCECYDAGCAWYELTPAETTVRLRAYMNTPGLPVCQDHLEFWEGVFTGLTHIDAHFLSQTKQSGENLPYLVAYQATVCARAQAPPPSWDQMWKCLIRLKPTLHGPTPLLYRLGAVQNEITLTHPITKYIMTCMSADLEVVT
# Assay: Inhibitory activity against HCV NS3 serine protease 1
# Set-up: species or system Hepacivirus hominis
row,Structure (SMILES),Ki
1,CCCC(NC(=O)[C@H](CC1OCCCO1)NC(=O)[C@@H](NC(=O)OCC(C)C)C1CCCCC1)C(=O)C(=O)NCC(=O)N[C@H](C(=O)O)c1ccccc1 (some centres undefined),430 nM
2,CCCC(NC(=O)[C@H](CC1OCCO1)NC(=O)[C@@H](NC(=O)OCC(C)C)C1CCCCC1)C(=O)C(=O)NCC(=O)N[C@H](C(=O)O)c1ccccc1 (some centres undefined),300 nM
3,CCCCC[C@H](NC(=O)[C@@H](NC(=O)OCC(C)C)C1CCCCC1)C(=O)NC(CCC)C(=O)C(=O)NCC(=O)N[C@H](C(=O)O)c1ccccc1 (some centres undefined) (Isobutyloxycarbonyl-[Chg][Ahp(2)][X1]G[Phg]-OH),300 nM
4,CCCC(NC(=O)[C@H](CCC(C)C)NC(=O)[C@@H](NC(=O)OCC(C)C)C1CCCCC1)C(=O)C(=O)NCC(=O)N[C@H](C(=O)O)c1ccccc1 (some centres undefined) (Isobutyloxycarbonyl-[Chg][hLeu][X1]G[Phg]-OH),310 nM

# The remaining lines, values ahead:
row,Ki,Structure (SMILES)
1,250 nM,CCCC(NC(=O)[C@H](CC1SCCCS1)NC(=O)[C@@H](NC(=O)OCC(C)C)C1CCCCC1)C(=O)C(=O)NCC(=O)N[C@H](C(=O)O)c1ccccc1 (some centres undefined)
2,50 nM,CCCC(NC(=O)[C@H](CC1CC1)NC(=O)[C@@H](NC(=O)OCC(C)C)C1CCCCC1)C(=O)C(=O)NCC(=O)N[C@H](C(=O)O)c1ccccc1 (some centres undefined) (Isobutyloxycarbonyl-[Chg][Ala(cPr)][X1]G[Phg]-OH)
3,2300 nM,CCCC(NC(=O)[C@H](CC1SCc2ccccc2CS1)NC(=O)[C@@H](NC(=O)OCC(C)C)C1CCCCC1)C(=O)C(=O)NCC(=O)N[C@H](C(=O)O)c1ccccc1 (some centres undefined)
4,90 nM,CCCC(NC(=O)[C@H](CC1SCCS1)NC(=O)[C@@H](NC(=O)OCC(C)C)C1CCCCC1)C(=O)C(=O)NCC(=O)N[C@H](C(=O)O)c1ccccc1 (some centres undefined)
5,140 nM,CCCC(NC(=O)[C@H](CC1CCC1)NC(=O)[C@@H](NC(=O)OCC(C)C)C1CCCCC1)C(=O)C(=O)NCC(=O)N[C@H](C(=O)O)c1ccccc1 (some centres undefined) (Isobutyloxycarbonyl-[Chg][Cba][X1]G[Phg]-OH)
